Data as given in US20110195505A1, “BACTERIAL STRAINS FOR BUTANOL PRODUCTION” (priority 2009, published 2011).
Where “and” joins values, the source holds several entries; their conditions need not be identical. Equal values may be shown once.

Tests used:
BP63 (ΔfabZ1) [1] = assay: Shake flask growth rate of BP63 with isobutanol and oleic acid; format: cell-based, L. plantarum
Protocol: Four sets of conditions were prepared. For the first set, 20 mg/l oleic acid was added and isobutanol was added to 0, 1, 1.5, 2 and 2.5% final concentration. In the second set of flasks, 30 mg/L of oleic acid was added to the medium and the following final isobutanol concentrations were used: 0, 1, 1.5, 2, 2.5, and 3% w/v. The third and fourth set of the shake flask cultures were done at oleic acid concentrations of 50 and 55 mg/L. These flasks were placed in a shaking water bath at 30° C. at 80 RPM. Samples were taken at 2, 3, 4, and 5 hrs and the OD600 was measured.

[2] = test system: L. plantarum strain PN0512; assay: Growth yield (OD600) in isobutanol, stearic acid fed and unfed cultures; format: cell-based, Lactobacillus plantarum; details: no fatty acid fed, 25 hours, 30° C.
Protocol: For growth yield experiments, 5 ml of medium with test fatty acids (10-500 mg per liter) and varying concentrations of isobutanol in 15 ml screw cap tubes was inoculated with 12.5 μl of the working stock giving an initial OD600 of 0.012. The caps were tightly sealed and incubated at 30° C. on a roller drum for 20 to 26 hours, at which time 1.0 ml was removed and OD600 was measured with a blank of medium amended with the fatty acid. All solvent concentrations are reported as % (w/v).
Growth of L. plantarum cultures in the media described in General Methods and containing varying concentrations of isobutanol was measured and compared with the cultures fed (supplemented with) stearic acid at a final concentration of 50 mg per liter of medium. Cultures were prepared as described in General Methods.

BP63 (ΔfabZ1) [3] = assay: Growth of BP63 in the presence of isobutanol and oleic acid; format: cell-based, L. plantarum; details: for Growth (OD600) of BP63 (ΔfabZ1): 18 hours, 30° C.
Protocol: The purpose of these experiments was to see if the requirement for oleic acid changed in the presence of isobutanol. Semi-synthetic LAB medium, pH6, supplemented with 75 μg/mL uracil, 2.5 μg/mL hematin was used along with a series of varying concentrations of isobutanol and oleic acid. Oleic was added to the final concentrations of 0, 10, 20, 30, 40, and 50 mg/L. Isobutanol was added to the final concentrations of 0, 1.0, 1.5, 2.0, 2.5, and 3% (w/v). 2.5 mL of media was inoculated with […] of the BP63 working stock. The cultures were incubated at 30° C. without shaking for 18 hours. At 18 hours the OD600 was measured.

BP63 (ΔfabZ1) [4] = assay: Growth yield (OD600) with oleic acid, fabZ1 deletion strain; format: cell-based, L. plantarum; details: for OD600 BP63 (ΔfabZ1): 24 hours, 30° C.
Protocol: (§1) Strain BP63 (ΔfabZ1, described in Example 4) and the parental strain BP15 (fabZ1^+, described in Example 3) were grown in semi-synthetic LAB medium, pH6, with 75 μg/ml uracil and 2.5 μg/mL hematin in the presence and absence of an unsaturated fatty acid, oleic acid. Cultures were prepared as described in General Methods.

[5] = test system: BP63 (L. plantarum PN0512ΔpyrFΔfabZ1); assay: Fatty acid supplements supporting growth of the fabZ1 mutant; format: cell-based; details: fatty acid supplied at 80 mg/L; overnight incubation, OD600
Protocol: With 100 or 200 mg/liter of oleic acid the growth of BP63 was equivalent to that of the fabZ1^+ control strain, BP15. […] Thus, we conclude that fabZ1 in L. plantarum has the same function as FabN in E. faecalis (Wang, H. and Cronan, J. E. 2004. Functional replacement of the FabA and FabB proteins of Escherichia coli fatty acid synthesis by Enterococcus faecalis FabZ and FabF homologs. J. Biol. Chem. 279, 34489-95). To further test the range of fatty acid supplements that support growth of the fabZ1 mutant, several other fatty acids were supplied at 80 mg/L to the semi-synthetic LAB medium as described above. BP63 and the parental control BP15 were inoculated from the working stocks. After overnight incubation, the OD600 was measured. The growth of BP15 was not inhibited by any of the fatty acids tested. The Table 9 below summarizes the results for the fabZ1 mutant strain, BP63.

BP15 (fabZ1^+) = assay: Growth yield (OD600) with oleic acid, parental strain; format: cell-based, L. plantarum; details: 24 hours, 30° C.
Protocol: as §1

In the case of `CC(C)CO` [Isobutanol, isobutanol], the “effect of isobutanol on growth rate of fabZ1 mutant strain BP63” value (BP63 (ΔfabZ1) [1]; shake flask, suboptimal concentrations of oleic acid, FIG. 1) is reported as “stimulated growth”, the OD600 unfed control ([2]; 2.3 % w/v isobutanol) is reported as 0.727 and the OD600 unfed control ([2]; 2.5 % w/v isobutanol) is reported as 0.341. For the same compound, the OD600 unfed control ([2]; 2.7 % w/v isobutanol) was 0.131, the OD600 unfed control ([2]; 2.9 % w/v isobutanol) was 0.051 and the “Growth (OD600) of BP63 (ΔfabZ1)” value (BP63 (ΔfabZ1) [3]; oleic acid 0 mg/liter, iso-butanol 1%) was 0.0383. The “Growth (OD600) of BP63 (ΔfabZ1)” value (BP63 (ΔfabZ1) [3]; oleic acid 0 mg/liter, iso-butanol 1.5%) was 0.0385, the “Growth (OD600) of BP63 (ΔfabZ1)” value (BP63 (ΔfabZ1) [3]; oleic acid 0 mg/liter, iso-butanol 2%) was 0.0402 and the “Growth (OD600) of BP63 (ΔfabZ1)” value (BP63 (ΔfabZ1) [3]; oleic acid 0 mg/liter, iso-butanol 2.5%) was 0.038. The “Growth (OD600) of BP63 (ΔfabZ1)” value (BP63 (ΔfabZ1) [3]; oleic acid 0 mg/liter, iso-butanol 3%) was 0.0351, the “Growth (OD600) of BP63 (ΔfabZ1)” value (BP63 (ΔfabZ1) [3]; oleic acid 10 mg/liter, iso-butanol 1%) was 0.0829 and the “Growth (OD600) of BP63 (ΔfabZ1)” value (BP63 (ΔfabZ1) [3]; oleic acid 10 mg/liter, iso-butanol 1.5%) was 0.0601. The “Growth (OD600) of BP63 (ΔfabZ1)” value (BP63 (ΔfabZ1) [3]; oleic acid 10 mg/liter, iso-butanol 2%) was 0.0701, the “Growth (OD600) of BP63 (ΔfabZ1)” value (BP63 (ΔfabZ1) [3]; oleic acid 10 mg/liter, iso-butanol 2.5%) was 0.0684 and the “Growth (OD600) of BP63 (ΔfabZ1)” value (BP63 (ΔfabZ1) [3]; oleic acid 10 mg/liter, iso-butanol 3%) was 0.0397. The “Growth (OD600) of BP63 (ΔfabZ1)” value (BP63 (ΔfabZ1) [3]; oleic acid 20 mg/liter, iso-butanol 1%) was 0.2291, the “Growth (OD600) of BP63 (ΔfabZ1)” value (BP63 (ΔfabZ1) [3]; oleic acid 20 mg/liter, iso-butanol 1.5%) was 0.2375 and the “Growth (OD600) of BP63 (ΔfabZ1)” value (BP63 (ΔfabZ1) [3]; oleic acid 20 mg/liter, iso-butanol 2%) was 0.068. For the same compound, the “Growth (OD600) of BP63 (ΔfabZ1)” value (BP63 (ΔfabZ1) [3]; oleic acid 20 mg/liter, iso-butanol 2.5%) was 0.0594, the “Growth (OD600) of BP63 (ΔfabZ1)” value (BP63 (ΔfabZ1) [3]; oleic acid 20 mg/liter, iso-butanol 3%) was 0.0399 and the “Growth (OD600) of BP63 (ΔfabZ1)” value (BP63 (ΔfabZ1) [3]; oleic acid 30 mg/liter, iso-butanol 1%, listed as iso-butanol) was 0.7686. For the same compound, the “Growth (OD600) of BP63 (ΔfabZ1)” value (BP63 (ΔfabZ1) [3]; oleic acid 30 mg/liter, iso-butanol 1%, listed as isobutanol) was 0.769, the “Growth (OD600) of BP63 (ΔfabZ1)” value (BP63 (ΔfabZ1) [3]; oleic acid 30 mg/liter, iso-butanol 1.5%, listed as iso-butanol) was 0.7137 and the “Growth (OD600) of BP63 (ΔfabZ1)” value (BP63 (ΔfabZ1) [3]; oleic acid 30 mg/liter, iso-butanol 1.5%, listed as isobutanol) was 0.714. For the same compound, the “Growth (OD600) of BP63 (ΔfabZ1)” value (BP63 (ΔfabZ1) [3]; oleic acid 30 mg/liter, iso-butanol 2%) was 0.402, the “Growth (OD600) of BP63 (ΔfabZ1)” value (BP63 (ΔfabZ1) [3]; oleic acid 30 mg/liter, iso-butanol 2.5%) was 0.1606 and the “Growth (OD600) of BP63 (ΔfabZ1)” value (BP63 (ΔfabZ1) [3]; oleic acid 30 mg/liter, iso-butanol 3%) was 0.0995. For the same compound, the “Growth (OD600) of BP63 (ΔfabZ1)” value (BP63 (ΔfabZ1) [3]; oleic acid 40 mg/liter, iso-butanol 1%) was 1.2315, the “Growth (OD600) of BP63 (ΔfabZ1)” value (BP63 (ΔfabZ1) [3]; oleic acid 40 mg/liter, iso-butanol 1.5%) was 0.8852 and the “Growth (OD600) of BP63 (ΔfabZ1)” value (BP63 (ΔfabZ1) [3]; oleic acid 40 mg/liter, iso-butanol 2%) was 0.8012. The “Growth (OD600) of BP63 (ΔfabZ1)” value (BP63 (ΔfabZ1) [3]; oleic acid 40 mg/liter, iso-butanol 2.5%) was 0.1793, the “Growth (OD600) of BP63 (ΔfabZ1)” value (BP63 (ΔfabZ1) [3]; oleic acid 40 mg/liter, iso-butanol 3%) was 0.1358 and the “Growth (OD600) of BP63 (ΔfabZ1)” value (BP63 (ΔfabZ1) [3]; oleic acid 50 mg/liter, iso-butanol 1%) was 1.2567. For the same compound, the “Growth (OD600) of BP63 (ΔfabZ1)” value (BP63 (ΔfabZ1) [3]; oleic acid 50 mg/liter, iso-butanol 1.5%) was 1.257, the “Growth (OD600) of BP63 (ΔfabZ1)” value (BP63 (ΔfabZ1) [3]; oleic acid 50 mg/liter, iso-butanol 2%) was 0.5464 and the “Growth (OD600) of BP63 (ΔfabZ1)” value (BP63 (ΔfabZ1) [3]; oleic acid 50 mg/liter, iso-butanol 2.5%) was 0.1654. For the same compound, the “Growth (OD600) of BP63 (ΔfabZ1)” value (BP63 (ΔfabZ1) [3]; oleic acid 50 mg/liter, iso-butanol 3%) was 0.1185 and the “effect of isobutanol on growth of the fabZ1 mutant” value (BP63 (ΔfabZ1) [3]; oleic acid supplied at sub-optimal levels) was “enhanced the growth”.
For `CCCCCCCC/C=C\CCCCCCCC(=O)O` [Oleic acid, oleic acid], the “growth rate of BP63 compared with parental strain BP15” value (BP63 (ΔfabZ1) [1]; 55 mg/liter oleic acid, all concentrations of isobutanol) was “essentially identical”, the “Growth (OD600) of BP63 (ΔfabZ1)” value (BP63 (ΔfabZ1) [3]; oleic acid 10 mg/liter, iso-butanol 0%) was 0.0835 and the “Growth (OD600) of BP63 (ΔfabZ1)” value (BP63 (ΔfabZ1) [3]; oleic acid 20 mg/liter, iso-butanol 0%) was 0.1046. The “Growth (OD600) of BP63 (ΔfabZ1)” value (BP63 (ΔfabZ1) [3]; oleic acid 30 mg/liter, iso-butanol 0%) was 0.153 and 0.1526, the “Growth (OD600) of BP63 (ΔfabZ1)” value (BP63 (ΔfabZ1) [3]; oleic acid 40 mg/liter, iso-butanol 0%) was 0.2976 and the “Growth (OD600) of BP63 (ΔfabZ1)” value (BP63 (ΔfabZ1) [3]; oleic acid 50 mg/liter, iso-butanol 0%) was 1.181. For the same compound, the “growth of BP63 compared with fabZ1^+ control strain BP15” value (BP63 (ΔfabZ1) [4]; 100 or 200 mg/liter of oleic acid) was “equivalent”, the “growth of BP63” value (BP63 (ΔfabZ1) [4]; low concentrations of oleic acid up to 12 mg/liter) was “essentially no growth” and the “OD600 BP63 (ΔfabZ1)” value (BP63 (ΔfabZ1) [4]; oleic acid 1.5 mg/liter) was 0.0091. The “OD600 BP63 (ΔfabZ1)” value (BP63 (ΔfabZ1) [4]; oleic acid 3 mg/liter) was 0.0081, the “OD600 BP63 (ΔfabZ1)” value (BP63 (ΔfabZ1) [4]; oleic acid 6 mg/liter) was 0.0084 and the “OD600 BP63 (ΔfabZ1)” value (BP63 (ΔfabZ1) [4]; oleic acid 12 mg/liter) was 0.0234. For the same compound, the “OD600 BP63 (ΔfabZ1)” value (BP63 (ΔfabZ1) [4]; oleic acid 25 mg/liter) was 0.6943, the “OD600 BP63 (ΔfabZ1)” value (BP63 (ΔfabZ1) [4]; oleic acid 100 mg/liter) was 1.1452 and the “OD600 BP63 (ΔfabZ1)” value (BP63 (ΔfabZ1) [4]; oleic acid 200 mg/liter) was 1.3725. For the same compound, the “Supports growth of BP63” value [5] was “YES”, the “OD600 BP15 (fabZ1^+)” value (BP15 (fabZ1^+); oleic acid 1.5 mg/liter) was 0.9449 and the “OD600 BP15 (fabZ1^+)” value (BP15 (fabZ1^+); oleic acid 3 mg/liter) was 0.8375. For the same compound, the “OD600 BP15 (fabZ1^+)” value (BP15 (fabZ1^+); oleic acid 6 mg/liter) was 0.9459, the “OD600 BP15 (fabZ1^+)” value (BP15 (fabZ1^+); oleic acid 12 mg/liter) was 0.9681 and the “OD600 BP15 (fabZ1^+)” value (BP15 (fabZ1^+); oleic acid 25 mg/liter) was 1.0069. The “OD600 BP15 (fabZ1^+)” value (BP15 (fabZ1^+); oleic acid 100 mg/liter) was 1.0915 and the “OD600 BP15 (fabZ1^+)” value (BP15 (fabZ1^+); oleic acid 200 mg/liter) was 1.3187.
